{"source": "patent US5968910A", "about": "“Compositions containing two or three inhibitors of different HIV reverse transcriptases” (priority 1994, dated 1999)", "key": {"HIV-1/III(0.1) 103-Asn": {"test_system": "HIV-1/III(0.1) 103-Asn", "assay": "Sensitivity of mutant HIV-1 strain in CEM cell cultures", "format": "cell-based", "settings": "Table 5", "procedure,_shortened": "(§1)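 Syncytium formation read out after 4 days at 37° C. Cultures: CEM cells, 250,000/ml, infected at 100 50% cell culture infective doses/ml and added to compound dilutions.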"}, "HIV-1/IV(0.1) 103-Thr": {"test_system": "HIV-1/IV(0.1) 103-Thr", "assay": "Sensitivity of mutant HIV-1 strain in CEM cell cultures", "format": "cell-based", "settings": "Table 5", "procedure,_shortened": "as §1"}, "HIV-1/II(0.1) 100-Ile": {"test_system": "HIV-1/II(0.1) 100-Ile", "assay": "Sensitivity of mutant HIV-1 strain in CEM cell cultures", "format": "cell-based", "settings": "Table 5", "procedure,_shortened": "as §1"}, "[1]": {"test_system": "HIV-1/TIBO R82150 (100-Ile)", "assay": "Sensitivity of mutant HIV-1 strain in CEM cell cultures", "format": "cell-based", "settings": "CEM cells, Table 1", "procedure,_shortened": "as §1"}, "HIV-1/I(0.1) 103-Asn": {"test_system": "HIV-1/I(0.1) 103-Asn", "assay": "Sensitivity of mutant HIV-1 strain in CEM cell cultures", "format": "cell-based", "settings": "Table 5", "procedure,_shortened": "as §1"}, "HIV-1/B 101Glu": {"test_system": "HIV-1/B 101Glu", "assay": "Sensitivity of mutant HIV-1 strain in CEM cell cultures", "format": "cell-based", "settings": "Table 5", "procedure,_shortened": "as §1"}, "HIV-1/V(0.5) 103-Asn": {"test_system": "HIV-1/V(0.5) 103-Asn", "assay": "Sensitivity of mutant HIV-1 strain in CEM cell cultures", "format": "cell-based", "procedure,_shortened": "as §1"}, "[2]": {"test_system": "HIV-1/TIBO R82913 (103-Asn)", "assay": "Sensitivity of mutant HIV-1 strain in CEM cell cultures", "format": "cell-based", "settings": "CEM cells, Table 1", "procedure,_shortened": "as §1"}, "HIV-1/Pyr (181-Cys)": {"test_system": "HIV-1/Pyr (181-Cys)", "assay": "Sensitivity of mutant HIV-1 strain in CEM cell cultures", "format": "cell-based", "settings": "CEM cells, Table 1", "procedure,_shortened": "as §1"}, "HIV-1/Nev (106-Ala)": {"test_system": "HIV-1/Nev (106-Ala)", "assay": "Sensitivity of mutant HIV-1 strain in CEM cell cultures", "format": "cell-based", "settings": "CEM cells, Table 1", "procedure,_shortened": "as §1"}, "[3]": {"test_system": "HIV-1/V(0.1) 101-Ile + 141-Glu", "assay": "Sensitivity of mutant HIV-1 strain in CEM cell cultures", "format": "cell-based", "settings": "Table 5", "procedure,_shortened": "as §1"}, "[4]": {"test_system": "HIV-1/TSAO-m^3 T (138-Lys)", "assay": "Sensitivity of mutant HIV-1 strain in CEM cell cultures", "format": "cell-based", "settings": "CEM cells, Table 1", "procedure,_shortened": "as §1"}, "HIV-1 RT (WT)": {"target": "HIV-1 RT (WT) (Human immunodeficiency virus type 1 group M subtype B, UniProt P03366)", "assay": "biochemical", "settings": "IC50, anti-HIV-1 RT (WT) activity", "procedure,_shortened": "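Inhibition read as reduced incorporation of [2,8-³H]dGTP (2.95 μM) into acid-precipitable product on a poly(C).oligo(dG) template/primer (0.1 mM). Recombinant RT, test compounds in 5-fold dilutions; 30 min, 37° C, pH 7.8 Tris buffer with 5 mM Mg2+, 150 mM KCl.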"}, "HIV-1(IIIB) (WT)": {"test_system": "HIV-1(IIIB) (WT)", "assay": "microbe, parasite or virus in culture", "format": "cell-based", "settings": "Human immunodeficiency virus 1, IIIB, CCRF-CEM", "procedure,_shortened": "as §1"}}, "note": "Like-named read-outs stand apart in the source and are kept apart here.", "data": [{"smiles": "Cc1cn([C@@H]2O[C@H](CO[Si](C)(C)C(C)(C)C)[C@@]3(OS(=O)(=O)C=C3N)[C@H]2O[Si](C)(C)C(C)(C)C)c(=O)n(C)c1=O", "note": "[TSAO-m^3 T]", "values": [{"measurement": "EC50", "setting": "HIV-1/III(0.1) 103-Asn", "result": 0.20, "unit": "µg/mL"}, {"measurement": "EC50", "setting": "HIV-1/IV(0.1) 103-Thr", "result": 0.30, "unit": "µg/mL"}, {"measurement": "EC50", "setting": "HIV-1/II(0.1) 100-Ile", "result": 0.37, "unit": "µg/mL"}, {"measurement": "50% Effective Concentration", "setting": "[1]", "result": 0.05, "unit": "µg/mL"}, {"measurement": "EC50", "setting": "HIV-1/I(0.1) 103-Asn", "result": 0.22, "unit": "µg/mL"}, {"measurement": "EC50", "setting": "HIV-1/B 101Glu", "result": "> 2.5", "unit": "µg/mL"}, {"measurement": "EC50", "setting": "HIV-1/V(0.5) 103-Asn; Table 5", "result": 0.30, "unit": "µg/mL"}, {"measurement": "fold more inhibitory to HIV-1/III(0.1) than to HIV-1/V(0.5)", "setting": "HIV-1/V(0.5) 103-Asn; both RT/103-Asn mutants", "result": "equally inhibitory to both virus mutants"}, {"measurement": "50% Effective Concentration", "setting": "[2]", "result": 0.15, "unit": "µg/mL"}, {"measurement": "50% Effective Concentration", "setting": "HIV-1/Pyr (181-Cys)", "result": 3.0, "unit": "µg/mL"}, {"measurement": "50% Effective Concentration", "setting": "HIV-1/Nev (106-Ala)", "result": "> 50", "unit": "µg/mL"}, {"measurement": "EC50", "setting": "[3]", "result": 0.06, "unit": "µg/mL"}, {"measurement": "50% Effective Concentration", "setting": "[4]", "result": "> 50", "unit": "µg/mL"}, {"measurement": "IC50", "setting": "HIV-1 RT (WT)", "result": 4.6, "unit": "µM"}, {"measurement": "EC50", "setting": "HIV-1(IIIB) (WT); CEM cells, Table 1, read-out: 50% Effective Concentration", "result": 0.03, "unit": "µg/mL"}, {"measurement": "EC50", "setting": "HIV-1(IIIB) (WT); HIV-1 (III8), Table 5, read-out: EC50", "result": 0.03, "unit": "µg/mL"}]}]}
